Test results published in PubChem BioAssay (NCI).
Several values for one entry are separate records, joined by “and”; a condition that tells them apart may be missing. Equal values may be shown once.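 Exposure lasted 48 hours, with cells grown in 96-well plates and compounds tested at five concentrations. At the GI50, growth is halved. Definition used: TGI = concentration required for complete inhibition of growth.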

Columns and labels:
Assay in all cases: growth of human tumour cells (NCI), 48 h
MCF7 breast = test system: MCF7 breast
DU-145 prostate = test system: DU-145 prostate
HCC-2998 colon = test system: HCC-2998 colon
NCI/ADR-RES ovarian = test system: NCI/ADR-RES ovarian
HOP-92 NSCLC = test system: HOP-92 NSCLC
U251 CNS = test system: U251 CNS
SK-OV-3 ovarian = test system: SK-OV-3 ovarian
HOP-62 NSCLC = test system: HOP-62 NSCLC
OVCAR-8 ovarian = test system: OVCAR-8 ovarian
A498 renal = test system: A498 renal
PC-3 prostate = test system: PC-3 prostate
SW-620 colon = test system: SW-620 colon

Row | SMILES | TGI (MCF7 breast) [µM] | TGI (DU-145 prostate) [µM] | TGI (HCC-2998 colon) | TGI (NCI/ADR-RES ovarian) [µM] | TGI (HOP-92 NSCLC) | TGI (U251 CNS) [µM] | TGI (SK-OV-3 ovarian) | TGI (HOP-62 NSCLC) | TGI (OVCAR-8 ovarian) [µM] | TGI (A498 renal) | TGI (PC-3 prostate) [µM] | TGI (SW-620 colon) [µM] | GI50 (MCF7 breast) [nM] | GI50 (NCI/ADR-RES ovarian) [nM] | GI50 (HOP-92 NSCLC) [nM] | GI50 (U251 CNS) | GI50 (A498 renal) [µM] | GI50 (PC-3 prostate) [µM] | GI50 (SW-620 colon) [µM]
1 | Nc1nc(Cl)cc(NCC2(CO)CC(CCc3ccccc3)C2)n1 (stereo not drawn) | > 100 | > 100 | > 100 µM | > 100 | > 100 µM | > 100 | > 100 µM | > 100 µM | > 100 | > 100 µM | > 100 | > 100 |  |  |  |  |  |  | 
2 | CCN(CC)CCOC(c1cc(OC)ccc1OC)c1ccc2n1-c1ccccc1OC2 (stereo not drawn) | 30.2 | 60.7 | 20.9 µM | 13.9 | 9.37 µM | 28.1 |  | 40.2 µM | 25.9 | 24.1 µM | 27.4 | 21.1 |  |  |  |  |  |  | 
3 | CCC(=O)C(c1ccccc1)c1ccccn1 (stereo not drawn) | > 100 | > 100 | > 100 µM | > 100 | > 100 µM | > 100 | > 100 µM | > 100 µM | > 100 | > 100 µM | > 100 | > 100 |  |  |  |  |  |  | 
4 | C=CC(=O)c1ccc2c(c1)OCCOCCOCCOCCOCCO2 | 32.4 | > 100 | > 100 µM | 54 | 33.5 µM | > 100 | > 100 µM | > 100 µM | 41.9 | > 100 µM | 76.5 | 35.2 |  |  |  |  |  |  | 
5 | COC(=O)C1(Cc2ccccc2)Cc2cc3c(cc2C1=O)CCC3 (stereo not drawn) | 42.9 | > 100 | 9.64 µM | > 100 | 42.3 µM | > 100 | > 100 µM | > 100 µM | > 100 | 82 µM | > 100 | > 100 |  |  |  |  |  |  | 
6 | CCCCCCCCCC[C@@H](O)[C@H]1CC[C@H]([C@H]2CC[C@H]([C@H](O)CCCCCCCCCC[C@@H]3CC(CC(C)=O)C(=O)O3)O2)O1 (stereo partly drawn) | > 50 | > 50 | > 50 µM |  | 8.42 µM and > 50 µM | > 50 | > 50 µM | > 50 µM | > 50 | > 50 µM | > 50 | > 50 | 1850 | 377 | 2410 | 7.12 µM | 7.44 | 5.3 | 5.19
7 | COc1cc2oc(-c3ccc(O)cc3)c(OC3OC(C)C(O)C(O)C3O)c(=O)c2c(O)c1OC (stereo not drawn) | > 100 | > 100 | > 100 µM | > 100 | > 100 µM | > 100 | > 100 µM | > 100 µM | > 100 | > 100 µM | > 100 | > 100 |  |  |  |  |  |  | 
8 | COc1ccc2c(c1)c1c(n2CCN2CCOCC2)-c2ccccc2CC1 | > 100 | > 100 | 41.2 µM | > 100 | > 100 µM | > 100 | > 100 µM | > 100 µM | > 100 | > 100 µM | > 100 | > 100 |  |  |  |  |  |  | 
9 | CC(=O)C(CN1CCCCC1)C(c1ccccc1)c1c(O)c2ccccc2oc1=O (stereo not drawn) | > 100 | > 100 | > 100 µM | > 100 | > 100 µM | > 100 | > 100 µM | > 100 µM | > 100 | > 100 µM | > 100 | > 100 |  |  |  |  |  |  | 
10 | O=c1c2c3ccccc3[nH]c2c2cccc3c2n1CCC3 | > 100 | > 100 | > 100 µM | > 100 | > 100 µM | > 100 | > 100 µM | > 100 µM | > 100 | > 100 µM | > 100 | > 100 |  |  |  |  |  |  | 
11 | Cc1ccc(-c2cc(N)n(-c3nc4c([nH]3)c(=O)n(C)c(=O)n4C)n2)cc1 | > 100 | 20.4 | > 100 µM | 7.81 | 32.2 µM | > 100 | 16.1 µM | 16.4 µM | 15.3 | 21 µM | > 100 |  |  |  |  |  |  |  | 
12 | COc1ccc(-c2c(C#N)c(S)n(C3OC(COC(C)=O)C(OC(C)=O)C(OC(C)=O)C3OC(C)=O)c(=O)c2C#N)cc1 (stereo not drawn) | > 100 | > 100 | 98.9 µM and 64.6 µM | > 100 | 67 µM and 53.5 µM | > 100 | 75.8 µM and > 100 µM | 67.5 µM and > 100 µM | > 100 | 90.5 µM and 77.3 µM | > 100 | > 100 |  |  |  | 36.8 µM and 75.2 µM |  |  | 
13 | Cc1ccccc1C1OC1C(=O)c1ccccc1N (stereo not drawn) | > 100 | > 100 | > 100 µM | > 100 | > 100 µM | > 100 | > 100 µM |  | > 100 | > 100 µM | > 100 | > 100 |  |  |  |  |  |  | 
14 | N#CC1=C(N)OC2=C(CSc3ccccc32)C1c1ccc(Br)cc1 (stereo not drawn) | 13.8 | > 100 |  | 7.75 | 21.5 µM | 19.9 | 27 µM | 32.7 µM | 14.8 | 27.2 µM | 16.8 | 23.8 |  |  |  |  |  |  | 
15 | c1sc(NC2=NCCO2)c2c1CCCC2 | > 100 | > 100 | > 100 µM | > 100 | > 100 µM | > 100 | > 100 µM |  | > 100 | > 100 µM | > 100 | > 100 |  |  |  |  |  |  | 
16 | O=C(NS(=O)(=O)Nc1ccc(Cl)cc1)OCc1ccc(Cl)cc1Cl | 31.9 | 46.5 | 30.9 µM | 49.9 | 61.9 µM | 66.7 | 48.2 µM | > 100 µM | 90.7 | 38.8 µM | > 100 | > 100 |  |  |  |  |  |  | 
17 | COC(=O)C1=C(C(=O)OC)C2OC1C1C2C2(C)C(C)=C(C)C1(C)S2=O (stereo not drawn) | > 45.3 | 21.1 | 38.3 µM | > 66.5 | 32.7 µM | 26.8 | > 100 µM | 41.8 µM | > 100 | 68.4 µM | 45.7 | 12.6 |  |  |  |  |  |  | 
18 | COc1ccc(Nc2c(C#N)c3n(c4ccccc24)c2ccccc2[n+]3C)cc1OC | 21.7 | 18.5 | 13.7 µM | 17.6 | > 34.2 µM | 17.9 | 23.3 µM | 23.6 µM | 18.5 | 20.4 µM | 8.38 | 15.7 |  |  |  |  |  |  | 
